Measured values: publication PMC11123841, “Discovery and Synthesis of Hydroxy-L-Proline Blockers of the Neutral Amino Acid Transporters SLC1A4 (ASCT1) and SLC1A5 (ASCT2)” (Molecules, 2024)
Values joined by “and” are separate entries in the source; they are usually repeats but may differ in a detail not shown here. Equal entries are not always repeated. “Also recorded” adds a separate entry of the source.

Legend:
Format in all cases: cell-based
[1] = biological target: T1, SLC38A2 (ATA2) (Homo sapiens, UniProt Q96QD8); assay: TEVC electrogenic coupled currents in oocytes; details: 100 µM L-alanine, 3 µM BPOHP
T1 construct: expressed in transfected cells; host or cells: Xenopus laevis oocytes (cRNA injection)
T1 sequence (Q96QD8 1-506): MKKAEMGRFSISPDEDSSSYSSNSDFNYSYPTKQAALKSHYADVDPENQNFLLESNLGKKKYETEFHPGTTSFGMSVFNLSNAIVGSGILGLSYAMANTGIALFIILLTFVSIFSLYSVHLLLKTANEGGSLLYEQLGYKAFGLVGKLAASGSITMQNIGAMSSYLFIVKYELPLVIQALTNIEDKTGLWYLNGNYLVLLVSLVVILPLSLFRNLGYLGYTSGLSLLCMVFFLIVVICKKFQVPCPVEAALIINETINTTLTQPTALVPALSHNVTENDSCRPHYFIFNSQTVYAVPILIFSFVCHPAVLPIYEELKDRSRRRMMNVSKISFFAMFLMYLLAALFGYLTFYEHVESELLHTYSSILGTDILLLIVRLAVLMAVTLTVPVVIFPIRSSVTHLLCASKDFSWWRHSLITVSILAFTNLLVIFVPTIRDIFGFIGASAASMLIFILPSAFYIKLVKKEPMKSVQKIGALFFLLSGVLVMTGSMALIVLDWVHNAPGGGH
Description: (§1) Additionally, 4-HP applied at 1 mM was used to assess activity at the glutamate transporters SLC1A3 or SLC1A1.
(§2) BPOHP activity was evaluated against the glutamate transporters paralogs within the SLC1A gene family (SLC1A 1–3) as well as at neutral amino acid transporters that share common ligand substrates with the SLC1 family including SLC38A1,2, and 4 (ATA1, ATA2, ATA3) and heteromeric transporters SLC7A10+SLC3A2 (asc-1/4f2).
(§3) Uptake was halted by washing 3 times with 4 °C ND96 buffer. Oocytes were then lysed in 0.1% Triton X-100, and radioactivity was counted via liquid scintillation. Dose response curves were generated by fitting fractional inhibition (I) to the expression I = Imax × [inhibitor]/([inhibitor] + IC50).
Two-electrode voltage clamp (TEVC) transporter currents were recorded with a GeneClamp 500 amplifier and Digidata 1320A analog–digital interface (Molecular Devices, San Jose, CA, USA). […] Data were acquired with Axograph (v1.7.6) and LabChart (v7) and analyzed with Kaleidagraph software (v4.1) (Synergy, Reading, PA, USA). Uncoupled anion currents associated with the transport of substrate and block of SLC1A4 or SLC1A5 mediated leak conductance were recorded in the presence of Ringer with 50% substitution of NaCl by NaSCN to amplify the non-transported anion conductance. […]

[2] = biological target: T2, SLC1A3 (EAAT1) (Homo sapiens, UniProt P43003); assay: TEVC in oocytes expressing glutamate transporter; details: EAAT1 (SLC1A3); 10 µM L-glu current, TEVC; read-out: IC50, block of glutamate current
T2 construct: expressed in transfected cells; host or cells: Xenopus laevis oocytes (cRNA injection)
Description: as §1, §2, §3
(§4) Two-electrode voltage clamp (TEVC) transporter currents were recorded with a GeneClamp 500 amplifier and Digidata 1320A analog–digital interface (Molecular Devices, San Jose, CA, USA). Electrodes (0.2–1.0 MΩ) were filled with 3M KCl and the recording chamber was grounded with an agar bridge. Data were acquired with Axograph (v1.7.6) and LabChart (v7) and analyzed with Kaleidagraph software (v4.1) (Synergy, Reading, PA, USA). Uncoupled anion currents associated with the transport of substrate and block of SLC1A4 or SLC1A5 mediated leak conductance were recorded in the presence of Ringer with 50% substitution of NaCl by NaSCN to amplify the non-transported anion conductance.
(§5) Figure SM-2 TEVC from oocytes expressing SLC1A1-3 transporters.
(§6) (1 picture or pasted object on this page, not shown here)

[3] = biological target: T3, SLC1A1 (EAAT3) (Homo sapiens, UniProt P43005); assay: TEVC in oocytes expressing glutamate transporter; details: EAAT3 (SLC1A1); 10 µM L-glu current, TEVC; read-out: IC50, block of glutamate current
T3 construct: expressed in transfected cells; host or cells: Xenopus laevis oocytes (cRNA injection)
T3 sequence (P43005 1-524): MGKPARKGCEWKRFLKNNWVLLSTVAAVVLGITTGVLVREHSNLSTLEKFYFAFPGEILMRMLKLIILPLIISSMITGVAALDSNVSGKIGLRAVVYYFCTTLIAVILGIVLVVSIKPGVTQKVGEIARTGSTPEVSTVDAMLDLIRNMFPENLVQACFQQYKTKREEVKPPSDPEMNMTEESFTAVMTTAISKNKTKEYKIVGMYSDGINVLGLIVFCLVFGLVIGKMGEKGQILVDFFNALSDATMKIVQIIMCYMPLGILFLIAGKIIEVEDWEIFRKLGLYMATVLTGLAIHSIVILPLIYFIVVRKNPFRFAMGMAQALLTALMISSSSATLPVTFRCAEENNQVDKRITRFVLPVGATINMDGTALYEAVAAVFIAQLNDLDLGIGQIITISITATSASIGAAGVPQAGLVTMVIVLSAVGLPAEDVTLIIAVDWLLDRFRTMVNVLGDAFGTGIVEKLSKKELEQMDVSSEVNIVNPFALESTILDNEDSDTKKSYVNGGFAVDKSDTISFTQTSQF
Description: as §1, §2, §3, §4, §5, §6

[4] = biological target: T4, SLC1A5 (Mus musculus, UniProt P51912); assay: [3H]L-alanine heteroexchange (trans-stimulation) in preloaded oocytes; details: 3 µM BPOHP, 1 mM L-alanine
T4 construct: expressed in transfected cells; host or cells: Xenopus laevis oocytes (cRNA injection)
T4 sequence (P51912 1-553): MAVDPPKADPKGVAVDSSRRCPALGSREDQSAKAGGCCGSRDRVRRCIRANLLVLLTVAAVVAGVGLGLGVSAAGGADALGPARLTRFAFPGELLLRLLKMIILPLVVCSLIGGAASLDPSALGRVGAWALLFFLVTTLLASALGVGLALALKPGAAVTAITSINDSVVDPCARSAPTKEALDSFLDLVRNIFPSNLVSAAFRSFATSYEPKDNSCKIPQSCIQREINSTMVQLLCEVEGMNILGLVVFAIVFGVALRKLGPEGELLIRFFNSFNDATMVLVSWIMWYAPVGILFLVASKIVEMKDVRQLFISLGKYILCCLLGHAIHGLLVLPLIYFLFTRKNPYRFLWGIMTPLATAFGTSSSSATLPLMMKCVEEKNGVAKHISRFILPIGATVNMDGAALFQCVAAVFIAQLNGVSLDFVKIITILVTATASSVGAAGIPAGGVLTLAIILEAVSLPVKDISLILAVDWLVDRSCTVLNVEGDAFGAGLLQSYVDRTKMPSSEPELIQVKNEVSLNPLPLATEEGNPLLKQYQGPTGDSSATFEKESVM
Description: as §3

T2 sequence (P43003 whole entry): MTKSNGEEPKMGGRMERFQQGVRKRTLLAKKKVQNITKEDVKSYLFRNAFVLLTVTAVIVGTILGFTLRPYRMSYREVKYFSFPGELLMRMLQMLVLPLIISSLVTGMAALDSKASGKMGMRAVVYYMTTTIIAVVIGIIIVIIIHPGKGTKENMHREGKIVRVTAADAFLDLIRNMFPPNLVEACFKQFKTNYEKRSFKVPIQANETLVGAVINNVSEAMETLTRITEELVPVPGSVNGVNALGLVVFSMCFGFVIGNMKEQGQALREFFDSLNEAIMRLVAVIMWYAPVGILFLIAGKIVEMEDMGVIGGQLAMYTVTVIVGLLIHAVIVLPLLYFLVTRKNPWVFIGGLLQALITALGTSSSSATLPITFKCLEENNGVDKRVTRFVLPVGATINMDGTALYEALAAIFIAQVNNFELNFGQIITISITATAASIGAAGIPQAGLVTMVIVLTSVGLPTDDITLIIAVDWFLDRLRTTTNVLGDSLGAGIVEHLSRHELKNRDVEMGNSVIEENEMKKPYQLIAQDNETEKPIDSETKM

In the case of `O=C(O)[C@H]1NC[C@@H](OCc2ccc(-c3ccccc3)cc2)[C@@H]1O` [14e], the “block of L-alanine current” value [1] is reported as “no effect; also recorded: no discernible block; also recorded: no inhibition was detected”, the IC50 [2] is reported as 1.75 µM and 2.45 µM and the IC50 [3] is reported as 19.5 µM and 25.3 µM. The “[3H]L-alanine exchange” value [4] was “No exchange was detected”.
